Test results from patent US9988400B2 (Genentech, Inc., priority 2013, dated 2018).

Molecular target: T1, HEK cells stably transfected with tetracycline inducible hNR1 and hNR2A (Homo sapiens, UniProt Q05586+Q12879)
T1 construct: expressed in transfected cells; host or cells: HEK cells, stably transfected, tetracycline/doxycycline inducible
Test: Assay 1: Cell-Based Assay, cytosolic calcium response to positive allosteric modulators (with 30 μM glycine and 300 nM L-glutamate, EC30)
Conditions: for EC50: cytosolic calcium response, with 30 μM glycine and 300 nM L-glutamate (EC30), — = no plateau was reached; for Max %: responses scaled relative to 100 μM L-glutamate maximal response (100%) and 0 μM L-glutamate (0%)
Summary of the method: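 Cells induced 24 h with 7.5 μg mL^−1 doxycycline plus 500 μM (+)-ketamine, loaded 60 min at 37 °C with calcium dye in Mg-free HBSS (1.8 mM Ca, probenecid, 10 μM (+)-ketamine, pH 7.15). Peak RFU over 5 min after compound addition, scaled to 100 μM L-glutamate (100%) and 0 μM (0%); four-parameter Hill fit for EC50, max % if no plateau.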

T1 sequence (Q12879 23-1464, other chains not shown): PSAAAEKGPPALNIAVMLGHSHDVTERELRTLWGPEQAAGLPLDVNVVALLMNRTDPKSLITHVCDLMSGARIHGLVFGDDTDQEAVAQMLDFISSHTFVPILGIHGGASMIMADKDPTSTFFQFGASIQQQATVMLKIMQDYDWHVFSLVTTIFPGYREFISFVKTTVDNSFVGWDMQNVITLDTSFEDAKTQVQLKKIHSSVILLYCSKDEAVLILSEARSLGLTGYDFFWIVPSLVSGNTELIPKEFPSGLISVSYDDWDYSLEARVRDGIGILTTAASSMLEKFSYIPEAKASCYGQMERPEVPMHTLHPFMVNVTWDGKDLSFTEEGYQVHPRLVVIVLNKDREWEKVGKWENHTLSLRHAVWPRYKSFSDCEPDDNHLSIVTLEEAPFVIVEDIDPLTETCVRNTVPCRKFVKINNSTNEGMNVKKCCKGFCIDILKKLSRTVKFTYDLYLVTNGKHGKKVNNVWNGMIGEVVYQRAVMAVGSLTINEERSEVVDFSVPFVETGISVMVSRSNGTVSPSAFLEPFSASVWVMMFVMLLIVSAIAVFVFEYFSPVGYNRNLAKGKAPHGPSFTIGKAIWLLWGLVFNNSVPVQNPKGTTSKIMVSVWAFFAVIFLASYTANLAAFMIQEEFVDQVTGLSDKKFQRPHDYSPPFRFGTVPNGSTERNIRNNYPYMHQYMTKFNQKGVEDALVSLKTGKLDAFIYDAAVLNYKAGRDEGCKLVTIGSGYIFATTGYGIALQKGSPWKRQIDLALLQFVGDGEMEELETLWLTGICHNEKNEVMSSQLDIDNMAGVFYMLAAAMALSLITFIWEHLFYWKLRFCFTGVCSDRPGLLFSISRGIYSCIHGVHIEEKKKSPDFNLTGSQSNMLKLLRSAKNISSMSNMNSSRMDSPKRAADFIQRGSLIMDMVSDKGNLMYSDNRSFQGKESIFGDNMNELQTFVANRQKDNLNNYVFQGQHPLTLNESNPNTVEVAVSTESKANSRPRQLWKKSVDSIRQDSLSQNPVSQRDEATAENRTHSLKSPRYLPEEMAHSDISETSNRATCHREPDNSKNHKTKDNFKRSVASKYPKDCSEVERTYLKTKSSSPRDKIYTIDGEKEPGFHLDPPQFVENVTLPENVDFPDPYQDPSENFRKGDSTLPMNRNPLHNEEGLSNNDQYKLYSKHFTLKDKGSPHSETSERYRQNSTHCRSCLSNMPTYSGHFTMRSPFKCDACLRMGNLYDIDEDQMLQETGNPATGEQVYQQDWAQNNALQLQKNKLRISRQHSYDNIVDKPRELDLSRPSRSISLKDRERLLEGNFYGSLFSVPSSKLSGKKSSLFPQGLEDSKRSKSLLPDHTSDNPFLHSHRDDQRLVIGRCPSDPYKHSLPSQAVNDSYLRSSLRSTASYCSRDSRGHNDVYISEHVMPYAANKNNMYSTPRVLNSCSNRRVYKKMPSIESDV

| SMILES | EC50 (Table 3) | Max % (Table 2) | EC50 (Table 2) |
| --- | --- | --- | --- |
| CNC(=O)c1c(C(F)(F)F)sc2nc(Cn3nc(C(F)(F)F)cc3Cl)cc(=O)n12 [compound 55, 7-[[5-chloro-3-(trifluoromethyl)pyrazol-1-yl]methyl]-N-methyl-5-oxo-2-(trifluoromethyl)thiazolo[3,2-a]pyrimidine-3-carboxamide] | 1.16 µM | – | – |
| CCCc1ccc(F)cc1Cc1cc(=O)n2c(C(=O)NCC)c(C)sc2n1 [Example 21.67, N-ethyl-7-(5-fluoro-2-propylbenzyl)-2-methyl-5-oxo-5H-thiazolo[3,2-a]pyrimidine-3-carboxamide] | – | 75% | – |
| Cc1sc2nc(Cn3nc([N+](=O)[O-])cc3Cl)cc(=O)n2c1Br [compound 246, 3-bromo-7-[(5-chloro-3-nitro-pyrazol-1-yl)methyl]-2-methyl-thiazolo[3,2-a]pyrimidin-5-one] | 0.0999 µM | – | – |
| Cc1sc2nc(C(C)n3nc(C(F)(F)F)cc3C3CC3)cc(=O)n2c1[C@@H]1C[C@H]1CO (relative stereo) [Example 19.1, 7-(1-(5-cyclopropyl-3-(trifluoromethyl)-1H-pyrazol-1-yl)ethyl)-3-(trans-2-(hydroxymethyl)cyclopropyl)-2-methyl-5H-thiazolo[3,2-a]pyrimidin-5-one] | – | 116% | 12.2 µM |
| CCc1sc2nc(Cn3nc(C(F)(F)F)cc3Cl)cc(=O)n2c1-c1cccnc1 [compound 202, 7-[[5-chloro-3-(trifluoromethyl)pyrazol-1-yl]methyl]-2-ethyl-3-(3-pyridyl)thiazolo[3,2-a]pyrimidin-5-one] | 23.9 µM | – | – |
| CNC(=O)c1c(C(F)(F)F)sc2nc(COc3ccc(F)cc3)cc(=O)n12 [Example 3.2, 7-(4-Fluorophenoxymethyl)-N-methyl-5-oxo-2-(trifluoromethyl)-5H-[1,3]thiazolo[3,2-a]pyrimidine-3-carboxamide] | – | 42.7% | 10.1 µM |
| CCN(Cc1cc(=O)n2c(/C=C/C#N)c(C)sc2n1)c1ccc(F)cc1 [compound 279, (E)-3-[7-[(N-ethyl-4-fluoro-anilino)methyl]-2-methyl-5-oxo-thiazolo[3,2-a]pyrimidin-3-yl]prop-2-enenitrile] | 1.82 µM | – | – |
| Cc1sc2nc(COc3ccc(F)cc3)cc(=O)n2c1C1CC1CF (centres unmarked) [Example 4.28, 3-(2-(fluoromethyl)cyclopropyl)-7-((4-fluorophenoxy)methyl)-2-methyl-5H-thiazolo[3,2-a]pyrimidin-5-one] | – | 89% | 3.4 µM |
| Cc1sc2nc(COc3ccc(F)cc3)cc(=O)n2c1-c1nnc[nH]1 [Example 4.16, 7-((4-fluorophenoxy)methyl)-2-methyl-3-(4H-1,2,4-triazol-3-yl)-5H-thiazolo[3,2-a]pyrimidin-5-one] | – | 46.2% | – |
| Cc1sc2nc(Cn3nc(C(F)(F)F)cc3Cl)cc(=O)n2c1Br [compound 215, 3-bromo-7-[[5-chloro-3-(trifluoromethyl)pyrazol-1-yl]methyl]-2-methyl-thiazolo[3,2-a]pyrimidin-5-one] | 0.0911 µM | – | – |
| Cc1sc2nc(Cn3ccc(C(F)(F)F)n3)cc(=O)n2c1C1CC1C#N (single isomer, unassigned) [compound 273] | 2.08 µM | – | – |
| Cc1sc2nc(Cc3nc(C(F)(F)F)cn3C)cc(=O)n2c1C1CC1C#N (centres unmarked) [compound 278, 2-[2-methyl-7-[[1-methyl-4-(trifluoromethyl)imidazol-2-yl]methyl]-5-oxo-thiazolo[3,2-a]pyrimidin-3-yl]cyclopropanecarbonitrile] | 10.6 µM | – | – |
| CCN(Cc1cc(=O)n2c(C#N)csc2n1)c1ccc(F)cc1 [Example 7.4, 7-[(N-ethyl-4-fluoro-anilino)methyl]-5-oxo-thiazolo[3,2-a]pyrimidine-3-carbonitrile] | – | 166% | 5.7 µM |
| Cc1sc2nc(COc3ccc(F)cc3)cc(=O)n2c1[C@@H]1C[C@H]1CC#N (relative stereo) [Example 4.26, trans-2-[2-[7-(4-Fluorophenoxymethyl)-2-methyl-5-oxo-5H-[1,3]thiazolo[3,2-a]pyrimidin-3-yl]cyclopropyl]acetonitrile] | – | 98.8% | – |
| CC(=O)c1c(C)sc2nc(Cn3nc(C(F)(F)F)cc3C3CC3)cc(=O)n12 [Example 18.2, 3-acetyl-7-((5-cyclopropyl-3-(trifluoromethyl)-1H-pyrazol-1-yl)methyl)-2-methyl-5H-thiazolo[3,2-a]pyrimidin-5-one] | – | 144% | 2.2 µM |
| Cc1sc2nc(Cn3nc(C(F)(F)F)cc3C3CC3)c(F)c(=O)n2c1[C@@H]1C[C@H]1CO (relative stereo) [Example 15.20, 7-((5-cyclopropyl-3-(trifluoromethyl)-1H-pyrazol-1-yl)methyl)-6-fluoro-3-(trans-2-(hydroxymethyl)cyclopropyl)-2-methyl-5H-thiazolo[3,2-a]pyrimidin-5-one] | – | 153% | 0.314 µM |

| SMILES | EC50 (Table 3) | Max % (Table 2) | EC50 (Table 2) |
| --- | --- | --- | --- |
| COCc1c(C)sc2nc(Cn3nc(C(F)(F)F)cc3Cl)cc(=O)n12 [compound 183, 7-[[5-chloro-3-(trifluoromethyl)pyrazol-1-yl]methyl]-3-(methoxymethyl)-2-methyl-thiazolo[3,2-a]pyrimidin-5-one] | 5.29 µM | – | – |
| Cc1sc2nc(Cc3cc(F)cc(C#N)c3)cc(=O)n2c1[C@@H]1C[C@H]1CO (relative stereo) [Example 20.8, 3-fluoro-5-((3-(trans-2-(hydroxymethyl)cyclopropyl)-2-methyl-5-oxo-5H-thiazolo[3,2-a]pyrimidin-7-yl)methyl)benzonitrile] | – | 134% | 19 µM |
| CCN(Cc1cc(=O)n2c(CCC#N)c(C)sc2n1)c1ccc(F)cc1 [Example 13.7, 3-[7-[(N-ethyl-4-fluoro-anilino)methyl]-2-methyl-5-oxo-thiazolo[3,2-a]pyrimidin-3-yl]propanenitrile] | – | 137% | 0.547 µM |
| CCN(Cc1cc(=O)n2c(/C=C/C(N)=O)c(C)sc2n1)c1ccc(F)cc1 [compound 261, (E)-3-[7-[(N-ethyl-4-fluoro-anilino)methyl]-2-methyl-5-oxo-thiazolo[3,2-a]pyrimidin-3-yl]prop-2-enamide] | 1.54 µM | – | – |
| CCN(Cc1cc(=O)n2c3c(sc2n1)CCC3=O)c1ccc(F)cc1 [Example 8.7, 6-[(N-ethyl-4-fluoro-anilino)methyl]-2,3-dihydrocyclopenta[3,4]thiazolo[1,4-a]pyrimidine-1,8-dione] | – | 81.4% | – |
| CCN(Cc1cc(=O)n2c(C(O)C(F)(F)F)c(C)sc2n1)c1ccc(F)cc1 (centres unmarked) [Example 10.11, 7-[(N-ethyl-4-fluoro-anilino)methyl]-2-methyl-3-(2,2,2-trifluoro-1-hydroxy-ethyl)thiazolo[3,2-a]pyrimidin-5-one] | – | 167% | 1.2 µM |
| CCN(Cc1cc(=O)n2c(-c3ccccc3)c(C)sc2n1)c1ccc(F)cc1 [Example 5.22, 7-[(N-ethyl-4-fluoro-anilino)methyl]-2-methyl-3-phenyl-thiazolo[3,2-a]pyrimidin-5-one] | – | 142% | 1.6 µM |
| CNC(=O)c1c(C)sc2nc(Cc3cc(C(F)(F)F)ccc3C3CC3)cc(=O)n12 [Example 21.17, 7-[[2-cyclopropyl-5-(trifluoromethyl)phenyl]methyl]-N,2-dimethyl-5-oxo-thiazolo[3,2-a]pyrimidine-3-carboxamide] | – | 107% | 23.7 µM |
| CNC(=O)c1c(C)sc2nc(Cc3ccc(C)c(F)c3)cc(=O)n12 [Example 21.58, 7-[(3-fluoro-4-methyl-phenyl)methyl]-N,2-dimethyl-5-oxo-thiazolo[3,2-a]pyrimidine-3-carboxamide] | – | 46.1% | – |
| CCN(Cc1cc(=O)n2c(CN3CC(O)C3)c(C)sc2n1)c1ccc(F)cc1 [Example 10.10, 7-[(N-ethyl-4-fluoro-anilino)methyl]-3-[(3-hydroxyazetidin-1-yl)methyl]-2-methyl-thiazolo[3,2-a]pyrimidin-5-one] | – | 132% | 18.8 µM |
| CNC(=O)c1c(C(F)(F)F)sc2nc(Cc3cccc(C#N)c3F)cc(=O)n12 [compound 70, 7-[(3-cyano-2-fluoro-phenyl)methyl]-N-methyl-5-oxo-2-(trifluoromethyl)thiazolo[3,2-a]pyrimidine-3-carboxamide] | 2.92 µM | – | – |
| CCNC(=O)c1c(OCC(F)(F)F)sc2nc(Cc3cccc(C(F)(F)F)c3F)cc(=O)n12 [compound 165, N-ethyl-7-[[2-fluoro-3-(trifluoromethyl)phenyl]methyl]-5-oxo-2-(2,2,2-trifluoroethoxy)thiazolo[3,2-a]pyrimidine-3-carboxamide] | 1.37 µM | – | – |
| CNC(=O)Cc1c(C(F)(F)F)sc2nc(Cc3cccc(C(F)(F)F)c3F)cc(=O)n12 [compound 75, 2-[7-[[2-fluoro-3-(trifluoromethyl)phenyl]methyl]-5-oxo-2-(trifluoromethyl)thiazolo[3,2-a]pyrimidin-3-yl]-N-methyl-acetamide] | 28.9 µM | – | – |
| Cc1sc2nc(Cn3nc(Cl)cc3C(F)(F)F)cc(=O)n2c1-c1cncnc1 [compound 122, 7-[[3-chloro-5-(trifluoromethyl)pyrazol-1-yl]methyl]-2-methyl-3-pyrimidin-5-yl-thiazolo[3,2-a]pyrimidin-5-one] | 9.14 µM | – | – |
| CCNC(=O)c1csc2nc(Cc3cccc(C#N)c3F)c(F)c(=O)n12 [Example 21.26, 7-(3-cyano-2-fluorobenzyl)-N-ethyl-6-fluoro-5-oxo-5H-thiazolo[3,2-a]pyrimidine-3-carboxamide] | – | 76.5% | – |
| CCNC(=O)c1c(C)sc2nc(Oc3cccc(C#N)c3F)cc(=O)n12 [compound 68, 7-(3-cyano-2-fluoro-phenoxy)-N-ethyl-2-methyl-5-oxo-thiazolo[3,2-a]pyrimidine-3-carboxamide] | 30.4 µM | – | – |
